Measured values taken from PubChem BioAssay AID2060899 (Molecular Pharmacology Branch, DTP, NCI, 2025).

Test system: 565726-208-R1-J5-PDC complex spheroids, growth inhibition
Test: Anticancer human tumor 565726-208-R1-J5-PDC patient-derived pancreatic adenocarcinoma cell line growth inhibition [RAS]
Details: for IC50: curve of first compound; for viability, T/C: stronger effect = lower value
Excerpt: RAS pathway inhibitors in Combinations in Complex Spheroids
A high-throughput screen of multi-cell type tumor spheroids was designed to identify active combinations of RAS pathway inhibitors and targeted small molecules. Complex spheroids include a stromal component modeled by human endothelial cells (HUVEC) and fibroblasts modeled by human mesenchymal stem cells (MSCs). The concentration ranges selected for each drug and investigational agent were based upon clinically achievable concentrations if the clinical Cmax of the agent was known.
Compounds. The drugs and investigational agents: abemaciclib (NSC768073), cobimetinib (NSC768068), divarasib (GDC6063, NSC841802), docetaxel (NSC628503), GDC-1971 (RLY-1971, NSC841576), gemcitabine (NSC613327), inavolisib (NSC800729), ipatasertib (NSC767898), KB-0742 (NSC834161), MRTX-1133 (NSC836407), osimertinib (NSC779217), RMC-4630 (NSC839698), RMC-6236 (NSC851965), RMC-6291 (NSC852671), Ro-3306 (NSC812927), sapanisertib (NSC764658), SN-38 (NSC673596), staurosporine (NSC755774), SY5609 (NSC837396), and tovorafenib (DAY101, NSC766906), were obtained from the National Cancer Institute (NCI) Developmental Therapeutics Program Chemical Repository. The FDA-approved anticancer drug set is available from the NCI Developmental Therapeutics Program. […] The stock solutions were prepared in dimethyl sulfoxide (DMSO, Sigma-Aldrich, St. Louis, MO, cat. D2650) at 800-fold the tested concentration and stored at -70 degrees C prior to their use. All drugs and investigational agents were tested over a range starting from a high concentration at or near the clinical Cmax and decreasing in half-log increments. If the clinical Cmax for an agent had not been determined, the highest concentration tested was 10 microM.
Cell Culture. All cells were maintained in an incubator at 37 degrees C and 5% CO2 with 95% humidity. The PDC lines were cultured according to standard operating procedures established by the NCI PDMR. All PDCs were thawed and cultured in Matrigel-coated flasks prepared with a working solution of 1X Ham's F-12 nutrient mix, without supplementation (Invitrogen, Waltham, MA, cat. 11765054), 100 U/mL penicillin-streptomycin (Invitrogen, cat. 15140122), and 2.5% Matrigel (Corning Inc., Corning, NY, cat. 354248) for the first three passages. The 362531-283-R-J2-PDC and 782815-120-R-J1-PDC lines were cultured in 6C/Colon 1B media, which includes advanced DMEM/F-12 (Thermo Fisher Scientific, cat. 12634028), 10 mM HEPES (Thermo Fisher Scientific, cat. 15630080), 1X GlutaMAX supplement (Thermo Fisher Scientific, cat. 35050061), 0.1 mg/mL primocin (InvivoGen, San Diego, CA, cat. ant-pm-2), 10% defined fetal bovine serum, heat inactivated (HyClone Laboratories Inc., Logan, UT, cat. SH30070.03HI), 50% L-WRN conditioned media (ATCC, cat. CRL-3276), 1.25 mM N-Acetyl-L-cysteine (Sigma-Aldrich, cat. A9165), 10 mM nicotinamide (Sigma-Aldrich, cat. N0636), 1X B-27 supplement (Thermo Fisher Scientific, cat. 17504044), 1X N-2 supplement (Thermo Fisher Scientific, cat. 17502048), 50 ng/mL human EGF (Thermo Fisher Scientific, cat. PHG0311), and 10 microM Y-27632 dihydrochloride (Tocris Bioscience, cat. 1254). The K12877-001-R-J1-PDC line was cultured in 6I media, which includes all 6C/Colon 1B media plus 10 ng/mL human FGF-10 (PeproTech, cat. 100-26), 1 ng/mL human FGF-2 (PeproTech, cat. 100-18B), 1 µM prostaglandin E2 (Tocris Bioscience, cat. 2296), […] hydrocortisone (Sigma-Aldrich, cat. H4001), and […] bovine insulin (Sigma-Aldrich, cat. I6634). The K86415-001-R-J1-PDC line was cultured in 6D media, which includes all 6C/Colon 1B media components minus the L-WRN conditioned media. The 485176-168-R4-J1-PDC was cultured in PANC media, which includes all 6C/Colon 1B media plus 100 ng/mL human FGF-10 (PeproTech, cat. 100-26), 500 nM SB-431542 (Selleckchem, cat. S1067), and 10 nM gastrin (Tocris Bioscience, cat. 3006). […]

[1] = second compound 0.0316 µM, first compound 0.0316 µM
[2] = second compound 0.0316 µM, first compound 0.1 µM
[3] = second compound 0.0316 µM, first compound 0.316 µM
[4] = second compound 0.0316 µM, first compound 1 µM
[5] = second compound 0.0316 µM, first compound 3.16 µM
[6] = second compound 0.0316 µM, first compound 10 µM
[7] = second compound 0.1 µM, first compound 0.0316 µM
[8] = second compound 0.1 µM, first compound 0.1 µM
[9] = second compound 0.1 µM, first compound 0.316 µM
[10] = second compound 0.1 µM, first compound 1 µM
[11] = second compound 0.1 µM, first compound 3.16 µM
[12] = second compound 0.1 µM, first compound 10 µM
[13] = second compound 0.316 µM, first compound 0.0316 µM
[14] = second compound 0.316 µM, first compound 0.1 µM
[15] = second compound 0.316 µM, first compound 0.316 µM
[16] = second compound 0.316 µM, first compound 1 µM
[17] = second compound 0.316 µM, first compound 3.16 µM
[18] = second compound 0.316 µM, first compound 10 µM
[19] = second compound 1 µM, first compound 0.0316 µM
[20] = second compound 1 µM, first compound 0.1 µM
[21] = second compound 1 µM, first compound 0.316 µM
[22] = second compound 1 µM, first compound 1 µM
[23] = second compound 1 µM, first compound 3.16 µM
[24] = second compound 1 µM, first compound 10 µM
[25] = second compound 3.16 µM, first compound 0.0316 µM
[26] = second compound 3.16 µM, first compound 0.1 µM
[27] = second compound 3.16 µM, first compound 0.316 µM
[28] = second compound 3.16 µM, first compound 1 µM
[29] = second compound 3.16 µM, first compound 3.16 µM
[30] = second compound 3.16 µM, first compound 10 µM
[31] = second compound 10 µM, first compound 0.0316 µM
[32] = second compound 10 µM, first compound 0.1 µM
[33] = second compound 10 µM, first compound 0.316 µM
[34] = second compound 10 µM, first compound 1 µM
[35] = second compound 10 µM, first compound 3.16 µM
[36] = second compound 10 µM, first compound 10 µM
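Note: spheroids exposed to compounds for seven days before readout.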
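Throughout, for viability, T/C: 100% = DMSO vehicle control viability.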

Work on `Cc1nc(N2CCC3(CC2)COC(C)C3N)c(CO)nc1Sc1ccnc(N)c1Cl` (stereo unspecified) + C#Cc1c(F)ccc2cc(O)cc(-c3ncc4c(N5CC6CCC(C5)N6)nc(OCC56CCCN5CC(F)C6)nc4c3F)c12 yielded an IC50 (second compound 0.0316 µM) greater than 10000 nM, an IC50 (second compound 0.1 µM) greater than 10000 nM and an IC50 (second compound 0.316 µM) greater than 10000 nM. The IC50 (second compound 1 µM) was greater than 10000 nM, the IC50 (second compound 3.16 µM) was 313 nM and the IC50 (second compound 10 µM) was 229 nM. The viability, T/C [1] was 116%, the viability, T/C [2] was 125% and the viability, T/C [3] was 79.6%. It also gave a viability, T/C [4] of 77.1%, a viability, T/C [5] of 90.7% and a viability, T/C [6] of 104%. The viability, T/C [7] was 103%, the viability, T/C [8] was 112% and the viability, T/C [9] was 71.6%. For the same compound, the viability, T/C [10] was 72.8%, the viability, T/C [11] was 92.4% and the viability, T/C [12] was 101%. The viability, T/C [13] was 130%, the viability, T/C [14] was 108% and the viability, T/C [15] was 74.5%. For the same compound, the viability, T/C [16] was 67.8%, the viability, T/C [17] was 90.2% and the viability, T/C [18] was 80.3%. The viability, T/C [19] was 119%, the viability, T/C [20] was 106% and the viability, T/C [21] was 55.8%. It also gave a viability, T/C [22] of 53.4%, a viability, T/C [23] of 57.8% and a viability, T/C [24] of 71.1%. For the same compound, the viability, T/C [25] was 108%, the viability, T/C [26] was 94.5% and the viability, T/C [27] was 49.6%. The viability, T/C [28] was 42.8%, the viability, T/C [29] was 46% and the viability, T/C [30] was 57.3%. For the same compound, the viability, T/C [31] was 80.9%, the viability, T/C [32] was 66.1% and the viability, T/C [33] was 43.5%. The viability, T/C [34] was 35.9%, the viability, T/C [35] was 34.6% and the viability, T/C [36] was 33%.

`NC1c2ccccc2OC12CCN(c1cnc3c(N4CCCc5ncccc54)n[nH]c3n1)CC2` (stereo unspecified) + C#Cc1c(F)ccc2cc(O)cc(-c3ncc4c(N5CC6CCC(C5)N6)nc(OCC56CCCN5CC(F)C6)nc4c3F)c12 was tested, and the IC50 (second compound 0.0316 µM) was greater than 10000 nM, the IC50 (second compound 0.1 µM) was greater than 10000 nM and the IC50 (second compound 0.316 µM) was greater than 10000 nM. The IC50 (second compound 1 µM) was 838 nM, the IC50 (second compound 3.16 µM) was 283 nM and the IC50 (second compound 10 µM) was 88.2 nM. The viability, T/C [1] was 85.3%, the viability, T/C [2] was 107% and the viability, T/C [3] was 70.4%. For the same compound, the viability, T/C [4] was 58.8%, the viability, T/C [5] was 67.3% and the viability, T/C [6] was 73.1%. For the same compound, the viability, T/C [7] was 91.6%, the viability, T/C [8] was 101% and the viability, T/C [9] was 74.4%. The viability, T/C [10] was 58.1%, the viability, T/C [11] was 64.7% and the viability, T/C [12] was 78.4%. The viability, T/C [13] was 104%, the viability, T/C [14] was 105% and the viability, T/C [15] was 62%. It also gave a viability, T/C [16] of 51.2%, a viability, T/C [17] of 56.2% and a viability, T/C [18] of 57.4%. The viability, T/C [19] was 97.9%, the viability, T/C [20] was 88.2% and the viability, T/C [21] was 53.3%. For the same compound, the viability, T/C [22] was 46.4%, the viability, T/C [23] was 50.3% and the viability, T/C [24] was 51.3%. For the same compound, the viability, T/C [25] was 82.6%, the viability, T/C [26] was 75.3% and the viability, T/C [27] was 47.5%. For the same compound, the viability, T/C [28] was 36.4%, the viability, T/C [29] was 32.6% and the viability, T/C [30] was 40.4%. The viability, T/C [31] was 63%, the viability, T/C [32] was 48.4% and the viability, T/C [33] was 29.6%. For the same compound, the viability, T/C [34] was 28.9%, the viability, T/C [35] was 28% and the viability, T/C [36] was 25.8%.

`Nc1ccn(C2OC(CO)C(O)C2(F)F)c(=O)n1` (stereo unspecified) + C#Cc1c(F)ccc2cc(O)cc(-c3ncc4c(N5CC6CCC(C5)N6)nc(OCC56CCCN5CC(F)C6)nc4c3F)c12 showed an IC50 (second compound 0.0316 µM) of 92.8 nM, an IC50 (second compound 0.1 µM) of 73.8 nM and an IC50 (second compound 0.316 µM) of 273 nM. For the same compound, the IC50 (second compound 1 µM) was 63.3 nM, the IC50 (second compound 3.16 µM) was 37.5 nM and the IC50 (second compound 10 µM) was 30.3 nM. It also gave a viability, T/C (second compound 0.0316 µM, first compound 0.00316 µM) of 101%, a viability, T/C (second compound 0.0316 µM, first compound 0.01 µM) of 123% and a viability, T/C [1] of 80.8%. The viability, T/C [2] was 53.5%, the viability, T/C [3] was 46.7% and the viability, T/C [4] was 43.4%. The viability, T/C (second compound 0.1 µM, first compound 0.00316 µM) was 112%, the viability, T/C (second compound 0.1 µM, first compound 0.01 µM) was 130% and the viability, T/C [7] was 64%. The viability, T/C [8] was 54.6%, the viability, T/C [9] was 42.8% and the viability, T/C [10] was 37.5%. It also gave a viability, T/C (second compound 0.316 µM, first compound 0.00316 µM) of 122%, a viability, T/C (second compound 0.316 µM, first compound 0.01 µM) of 133% and a viability, T/C [13] of 54.9%. The viability, T/C [14] was 61.1%, the viability, T/C [15] was 46.1% and the viability, T/C [16] was 41.1%. The viability, T/C (second compound 1 µM, first compound 0.00316 µM) was 116%, the viability, T/C (second compound 1 µM, first compound 0.01 µM) was 110% and the viability, T/C [19] was 58.2%. For the same compound, the viability, T/C [20] was 46%, the viability, T/C [21] was 47.8% and the viability, T/C [22] was 39%. It also gave a viability, T/C (second compound 3.16 µM, first compound 0.00316 µM) of 117%, a viability, T/C (second compound 3.16 µM, first compound 0.01 µM) of 99.2% and a viability, T/C [25] of 51.1%. For the same compound, the viability, T/C [26] was 43.5%, the viability, T/C [27] was 41% and the viability, T/C [28] was 45.7%. It also gave a viability, T/C (second compound 10 µM, first compound 0.00316 µM) of 82%, a viability, T/C (second compound 10 µM, first compound 0.01 µM) of 85.8% and a viability, T/C [31] of 48.6%. For the same compound, the viability, T/C [32] was 47%, the viability, T/C [33] was 48.8% and the viability, T/C [34] was 44.9%.
